Reference: ChEMBL document CHEMBL3885881, “DrugMatrix”

Species: Rattus norvegicus
Test: DrugMatrix - Regimen: Daily Repeat
Assay type: toxicity, organism-based, Sprague-Dawley
Set-up: regimen Daily Repeat, gender Male, age 6-8 weeks
Details: in vivo, po, route oral GAVAGE, […]; for ABSOLUTE BASOPHIL / ABSOLUTE EOSINOPHIL / ABSOLUTE LYMPHOCYTE / ABSOLUTE SEGMENTED NEUTROPHIL / BASOPHIL / EOSINOPHIL / ERYTHROCYTE COUNT / HEMATOCRIT / HEMOGLOBIN / LEUKOCYTE COUNT / LYMPHOCYTE / MEAN CORPUSCULAR HEMOGLOBIN / MEAN CORPUSCULAR HEMOGLOBIN CONCENTRATION / MEAN CORPUSCULAR VOLUME / MONOCYTE / NEUTROPHIL / NUCLEATED RED BLOOD CELLS / PLATELET COUNT: tissue Blood; for ALANINE AMINOTRANSFERASE / ALBUMIN / ALKALINE PHOSPHATASE / ASPARTATE AMINOTRANSFERASE / BLOOD UREA NITROGEN / CARBON DIOXIDE / CHLORIDE / CHOLESTEROL / CREATINE PHOSPHOKINASE / CREATININE / GLUCOSE / LACTATE DEHYDROGENASE / LIPASE / PHOSPHORUS / POTASSIUM / SODIUM / TOTAL BILIRUBIN / TOTAL PROTEIN / URIC ACID: tissue Plasma
[1] = 15 mg/kg, 120 h, dose level Low, time 5 day
[2] = 1200 mg/kg, 72 h, dose level High, time 3 day
[3] = 1200 mg/kg, 120 h, dose level High, time 5 day

CCC(C)(C)C(=O)O[C@H]1C[C@@H](C)C=C2C=C[C@H](C)[C@H](CC[C@@H]3C[C@@H](O)CC(=O)O3)[C@H]21 [SIMVASTATIN]
ABSOLUTE BASOPHIL [1]: 0 CELLS/uL | ABSOLUTE EOSINOPHIL [1]: 0 CELLS/uL | ABSOLUTE LYMPHOCYTE [1]: 6051 CELLS/uL | ABSOLUTE SEGMENTED NEUTROPHIL [1]: 802.33 CELLS/uL | BASOPHIL [1]: 0% | EOSINOPHIL [1]: 0% | ERYTHROCYTE COUNT [1]: 5.09 x10E6/uL | HEMATOCRIT [1]: 32.87% | HEMOGLOBIN [1]: 12.87 G/DL | LEUKOCYTE COUNT [1]: 6.93 x10E3/uL | LYMPHOCYTE [1]: 87.67% | MEAN CORPUSCULAR HEMOGLOBIN [1]: 25.33 pg | MEAN CORPUSCULAR HEMOGLOBIN CONCENTRATION [1]: 39.2 G/DL | MEAN CORPUSCULAR VOLUME [1]: 64.63 fL | MONOCYTE [1]: 1% | NEUTROPHIL [1]: 11.33% | NUCLEATED RED BLOOD CELLS [1]: 0 /100WBC | PLATELET COUNT [1]: 1251.33 x10E3/uL | ALANINE AMINOTRANSFERASE [1]: 57.67 u/L | ALBUMIN [1]: 4 G/DL | ALKALINE PHOSPHATASE [1]: 335.33 u/L | ASPARTATE AMINOTRANSFERASE [1]: 77.67 u/L | BLOOD UREA NITROGEN [1]: 14.67 mg/dL | CARBON DIOXIDE [1]: 30.67 mmol/L | CHLORIDE [1]: 99 MEQ/L | CHOLESTEROL [1]: 66.33 mg/dL | CREATINE PHOSPHOKINASE [1]: 168.67 u/L | CREATININE [1]: 0.17 mg/dL | GLUCOSE [1]: 178.67 mg/dL | LACTATE DEHYDROGENASE [1]: 64 u/L | LIPASE [1]: 9.33 u/L | PHOSPHORUS [1]: 11.6 mg/dL | POTASSIUM [1]: 5.71 MEQ/L | SODIUM [1]: 144.13 MEQ/L | TOTAL BILIRUBIN [1]: 0.1 mg/dL | TOTAL PROTEIN [1]: 5.6 G/DL | URIC ACID [1]: 0.67 mg/dL | ABSOLUTE BASOPHIL [2]: 0 CELLS/uL | ABSOLUTE EOSINOPHIL [2]: 0 CELLS/uL | ABSOLUTE LYMPHOCYTE [2]: 6224.67 CELLS/uL | ABSOLUTE SEGMENTED NEUTROPHIL [2]: 3273.67 CELLS/uL | BASOPHIL [2]: 0% | EOSINOPHIL [2]: 0% | ERYTHROCYTE COUNT [2]: 6.06 x10E6/uL | HEMATOCRIT [2]: 37.77% | HEMOGLOBIN [2]: 14.83 G/DL | LEUKOCYTE COUNT [2]: 9.57 x10E3/uL | LYMPHOCYTE [2]: 66% | MEAN CORPUSCULAR HEMOGLOBIN [2]: 24.57 pg | MEAN CORPUSCULAR HEMOGLOBIN CONCENTRATION [2]: 39.27 G/DL | MEAN CORPUSCULAR VOLUME [2]: 62.5 fL | MONOCYTE [2]: 0.67% | NEUTROPHIL [2]: 33.33% | NUCLEATED RED BLOOD CELLS [2]: 0 /100WBC | PLATELET COUNT [2]: 1143.67 x10E3/uL | ALANINE AMINOTRANSFERASE [2]: 323.67 u/L | ALBUMIN [2]: 4.43 G/DL | ALKALINE PHOSPHATASE [2]: 403.67 u/L | ASPARTATE AMINOTRANSFERASE [2]: 291.33 u/L | BLOOD UREA NITROGEN [2]: 12 mg/dL | CARBON DIOXIDE [2]: 33 mmol/L | CHLORIDE [2]: 97.67 MEQ/L | CHOLESTEROL [2]: 46.33 mg/dL | CREATINE PHOSPHOKINASE [2]: 1429 u/L | CREATININE [2]: 0.1 mg/dL | GLUCOSE [2]: 174.33 mg/dL | LACTATE DEHYDROGENASE [2]: 212.33 u/L | LIPASE [2]: 26 u/L | PHOSPHORUS [2]: 7.2 mg/dL | POTASSIUM [2]: 5.3 MEQ/L | SODIUM [2]: 144.93 MEQ/L | TOTAL BILIRUBIN [2]: 0.17 mg/dL | TOTAL PROTEIN [2]: 5.67 G/DL | URIC ACID [2]: 0.5 mg/dL | ABSOLUTE BASOPHIL [3]: 0 CELLS/uL | ABSOLUTE EOSINOPHIL [3]: 0 CELLS/uL | ABSOLUTE LYMPHOCYTE [3]: 2769 CELLS/uL | ABSOLUTE SEGMENTED NEUTROPHIL [3]: 4331 CELLS/uL | BASOPHIL [3]: 0% | EOSINOPHIL [3]: 0% | ERYTHROCYTE COUNT [3]: 6.93 x10E6/uL | HEMATOCRIT [3]: 43.8% | HEMOGLOBIN [3]: 17.4 G/DL | LEUKOCYTE COUNT [3]: 7.1 x10E3/uL | LYMPHOCYTE [3]: 39% | MEAN CORPUSCULAR HEMOGLOBIN [3]: 25.1 pg | MEAN CORPUSCULAR HEMOGLOBIN CONCENTRATION [3]: 39.7 G/DL | MEAN CORPUSCULAR VOLUME [3]: 63.2 fL | MONOCYTE [3]: 0% | NEUTROPHIL [3]: 61% | NUCLEATED RED BLOOD CELLS [3]: 0 /100WBC | PLATELET COUNT [3]: 1317 x10E3/uL | ALANINE AMINOTRANSFERASE [3]: 285 u/L | ALBUMIN [3]: 4.7 G/DL | ALKALINE PHOSPHATASE [3]: 273 u/L | ASPARTATE AMINOTRANSFERASE [3]: 367 u/L | BLOOD UREA NITROGEN [3]: 37 mg/dL | CARBON DIOXIDE [3]: 35 mmol/L | CHLORIDE [3]: 82 MEQ/L | CHOLESTEROL [3]: 103 mg/dL | CREATINE PHOSPHOKINASE [3]: 1419 u/L | CREATININE [3]: 0.1 mg/dL | GLUCOSE [3]: 205 mg/dL | LACTATE DEHYDROGENASE [3]: 510 u/L | LIPASE [3]: 55 u/L | PHOSPHORUS [3]: 9 mg/dL | POTASSIUM [3]: 4.84 MEQ/L | SODIUM [3]: 136.7 MEQ/L | TOTAL BILIRUBIN [3]: 0.2 mg/dL | TOTAL PROTEIN [3]: 6.1 G/DL | URIC ACID [3]: 0.6 mg/dL
